Consider 7 molecules from ChEMBL document CHEMBL5104136, “Discovery of benzodioxane analogues as lead candidates of AIMP2-DX2 inhibitors” (Bioorg Med Chem Lett, 2022).

Data set [1] has as its system A549. Kind of data set: Cytotoxicity against human A549 cells expressing high levels of AIMP2-DX2 assessed as reduction in cell viability incubated for 96 hrs. It is filed as functional, cell-based. The note with it: A549, 96 h.
In data set [2] the test system is NCI-H460. Put plainly: Cytotoxicity against human NCI-H460 cells expressing median levels of AIMP2-DX2 assessed as reduction in cell viability incubated for 96 hrs. The note with it: NCI-H460, 96 h. It is filed as functional, cell-based.
Data set [3] in a line: Cytotoxicity against human WI-26 cells expressing low levels of AIMP2-DX2 assessed as reduction in cell viability incubated for 96 hrs. It is filed as toxicity, cell-based. The note with it: wi-26, 96 h.
Data set [4] concerns the target T1, Aminoacyl tRNA synthase complex-interacting multifunctional protein 2 (Homo sapiens, UniProt Q13155). Kind of data set: Inhibition of AIMP2-DX2 in human A549 cells by luciferase assay. It is filed as cell-based.
For data set [5], the system named is A549. Put plainly: Inhibition of cell proliferation in human A549 cells. It is filed as functional, cell-based.
The nature of data set [6]: Metabolic stability in human assessed as half life. It is filed as ADME.
The nature of data set [7]: Metabolic stability in mouse assessed as half life. It is filed as ADME.
Data set [8] is described as follows: Plasma stability in human assessed as compound remaining measured after 2 hrs. It is filed as ADME, cell-free. The settings on record: read-out: Stability.
Data set [9] in a line: Plasma stability in mouse assessed as compound remaining measured after 2 hrs. It is filed as ADME, cell-free. The note with it: read-out: Stability.
Data set [10] has as its target Cytochrome P450 3A4 (Homo sapiens, UniProt P08684). Kind of data set: Inhibition of CYP3A4 (unknown origin). It is filed as ADME.
Data set [11] deals with Cytochrome P450 2D6 (Homo sapiens, UniProt P10635). Kind of data set: Inhibition of CYP2D6 (unknown origin). It is filed as ADME.
Cytochrome P450 2D6, sequence (P10635 whole entry): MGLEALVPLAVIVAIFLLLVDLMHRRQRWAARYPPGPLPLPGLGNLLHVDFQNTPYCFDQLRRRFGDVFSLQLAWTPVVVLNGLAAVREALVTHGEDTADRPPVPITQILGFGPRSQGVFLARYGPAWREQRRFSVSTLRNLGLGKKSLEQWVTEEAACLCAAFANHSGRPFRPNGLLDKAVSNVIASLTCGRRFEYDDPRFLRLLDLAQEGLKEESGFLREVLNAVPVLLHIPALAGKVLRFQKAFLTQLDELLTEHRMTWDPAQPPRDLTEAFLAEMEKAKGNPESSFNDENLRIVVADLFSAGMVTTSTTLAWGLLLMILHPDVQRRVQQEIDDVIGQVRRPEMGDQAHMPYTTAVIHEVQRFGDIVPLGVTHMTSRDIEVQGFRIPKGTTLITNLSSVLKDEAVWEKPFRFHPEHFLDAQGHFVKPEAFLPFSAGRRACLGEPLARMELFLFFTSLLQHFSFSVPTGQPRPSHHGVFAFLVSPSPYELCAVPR
The target in data set [12] is T2, Cytochrome P450 1A2 (Homo sapiens, UniProt P05177).
T2 sequence (P05177 whole entry): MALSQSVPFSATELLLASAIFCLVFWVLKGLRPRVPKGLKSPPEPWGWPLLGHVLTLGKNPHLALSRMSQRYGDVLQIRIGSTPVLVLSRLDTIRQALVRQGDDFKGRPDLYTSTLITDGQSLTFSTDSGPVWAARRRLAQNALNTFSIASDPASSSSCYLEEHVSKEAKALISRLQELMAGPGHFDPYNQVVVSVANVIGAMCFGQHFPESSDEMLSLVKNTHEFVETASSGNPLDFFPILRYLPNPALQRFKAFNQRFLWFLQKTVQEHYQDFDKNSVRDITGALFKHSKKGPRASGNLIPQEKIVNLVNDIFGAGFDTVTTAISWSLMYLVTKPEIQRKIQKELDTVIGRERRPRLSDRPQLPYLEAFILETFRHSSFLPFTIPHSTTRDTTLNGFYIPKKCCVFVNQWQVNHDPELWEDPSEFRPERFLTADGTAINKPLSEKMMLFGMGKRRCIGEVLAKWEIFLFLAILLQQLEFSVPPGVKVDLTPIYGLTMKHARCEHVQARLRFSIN
Put plainly: Inhibition of CYP1A2 (unknown origin). It is filed as ADME.

Data set [13] deals with Cytochrome P450 2C9 (Homo sapiens, UniProt P11712). Put plainly: Inhibition of CYP2C9 (unknown origin). It is filed as ADME.
Cytochrome P450 2C9, sequence (P11712 whole entry): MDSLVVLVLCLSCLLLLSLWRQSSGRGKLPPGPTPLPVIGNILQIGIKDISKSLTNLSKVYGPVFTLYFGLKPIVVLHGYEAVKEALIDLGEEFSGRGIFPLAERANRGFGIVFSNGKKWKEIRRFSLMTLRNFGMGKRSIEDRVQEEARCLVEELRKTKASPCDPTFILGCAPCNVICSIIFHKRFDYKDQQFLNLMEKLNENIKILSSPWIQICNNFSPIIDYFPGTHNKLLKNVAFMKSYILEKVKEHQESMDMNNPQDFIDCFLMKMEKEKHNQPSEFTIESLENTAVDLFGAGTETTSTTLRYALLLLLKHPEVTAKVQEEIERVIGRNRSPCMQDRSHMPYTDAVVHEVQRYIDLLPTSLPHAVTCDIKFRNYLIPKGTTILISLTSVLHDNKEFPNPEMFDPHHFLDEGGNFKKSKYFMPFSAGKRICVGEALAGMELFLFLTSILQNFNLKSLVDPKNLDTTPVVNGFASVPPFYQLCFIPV
Data set [14] deals with Cytochrome P450 2C19 (Homo sapiens, UniProt P33261). Kind of data set: Inhibition of CYP2C19 (unknown origin). It is filed as ADME.
Cytochrome P450 2C19, sequence (P33261 whole entry): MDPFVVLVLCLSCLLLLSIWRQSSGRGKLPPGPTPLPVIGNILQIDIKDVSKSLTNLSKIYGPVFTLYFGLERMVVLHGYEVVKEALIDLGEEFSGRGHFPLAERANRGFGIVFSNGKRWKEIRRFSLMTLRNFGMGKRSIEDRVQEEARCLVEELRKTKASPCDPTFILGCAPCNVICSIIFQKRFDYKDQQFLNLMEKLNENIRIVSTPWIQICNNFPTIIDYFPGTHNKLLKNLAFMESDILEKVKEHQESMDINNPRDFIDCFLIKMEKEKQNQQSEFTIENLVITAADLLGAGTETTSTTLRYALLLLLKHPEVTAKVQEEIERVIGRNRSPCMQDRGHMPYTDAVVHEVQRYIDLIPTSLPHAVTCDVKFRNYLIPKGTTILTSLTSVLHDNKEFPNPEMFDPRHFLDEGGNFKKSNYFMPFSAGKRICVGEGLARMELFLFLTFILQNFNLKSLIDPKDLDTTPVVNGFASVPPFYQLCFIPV
Data set [15] has as its target T1, Aminoacyl tRNA synthase complex-interacting multifunctional protein 2. Put plainly: Inhibition of AIMP2-DX2 in human A549 cells by nanoluciferase based assay. It is filed as cell-based.

SMILES strings stand for the structures.

Cytochrome P450 3A4, sequence (P08684 whole entry): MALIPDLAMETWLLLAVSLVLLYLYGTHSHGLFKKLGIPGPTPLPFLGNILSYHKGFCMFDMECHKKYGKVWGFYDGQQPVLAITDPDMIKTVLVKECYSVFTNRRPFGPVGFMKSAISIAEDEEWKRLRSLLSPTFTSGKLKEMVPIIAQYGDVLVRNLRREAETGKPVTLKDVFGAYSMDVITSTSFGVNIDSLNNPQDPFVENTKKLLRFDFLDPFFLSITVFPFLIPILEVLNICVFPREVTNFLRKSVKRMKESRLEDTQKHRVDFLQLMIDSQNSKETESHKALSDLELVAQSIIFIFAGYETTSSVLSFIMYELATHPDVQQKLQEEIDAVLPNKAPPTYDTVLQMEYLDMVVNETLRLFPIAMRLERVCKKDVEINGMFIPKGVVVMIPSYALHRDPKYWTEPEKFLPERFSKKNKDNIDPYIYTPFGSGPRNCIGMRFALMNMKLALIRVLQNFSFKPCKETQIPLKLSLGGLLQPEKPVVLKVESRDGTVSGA
T1 sequence (Q13155 whole entry, looked up, one chain of several): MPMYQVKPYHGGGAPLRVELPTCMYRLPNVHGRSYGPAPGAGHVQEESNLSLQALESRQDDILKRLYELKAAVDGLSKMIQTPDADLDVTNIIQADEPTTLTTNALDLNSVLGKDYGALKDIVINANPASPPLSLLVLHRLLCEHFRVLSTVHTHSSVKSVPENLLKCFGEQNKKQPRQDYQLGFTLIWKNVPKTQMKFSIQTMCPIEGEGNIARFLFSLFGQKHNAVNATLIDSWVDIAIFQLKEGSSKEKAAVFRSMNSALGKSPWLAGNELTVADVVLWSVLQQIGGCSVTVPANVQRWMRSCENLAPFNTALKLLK

Usually EC50 stands for the concentration that produces a half-maximal response. Take `Cc1cc2occ(CC(=O)NCC3COc4ccccc4O3)c2cc1C` (stereo unspecified): the EC50 was 1230 nM in [1] and 370 nM in data set [2]. For the same molecule, the Activity result in [3] is listed as “Non-Toxic”.
For `Cc1cc(O)ccc1CC(=O)NCC1COc2ccccc2O1` (stereo unspecified) the same measures were 1100 nM, 458 nM and “Non-Toxic”.
What is called IC50 is the concentration that gives 50% inhibition. A low value points to higher potency. On to `Cc1ccc2c(CC(=O)NCC3COc4ccccc4O3)coc2c1` (stereo unspecified), for which the IC50 in data set [4] came to 5680 nM.
On to `Cc1ccc(S(=O)(=O)N[C@@H](CC(C)C)C(=O)N2CCCOCCOCCOCC2)cc1`, for which, in data set [5], the IC50 came out at 40100 nM.
The term half-life denotes how long it takes for the measured level to halve. Regarding `CCc1ccc(CC(=O)NCC2COc3ccccc3O2)cc1` (stereo unspecified), the EC50 in data set [1] came to 688 nM; in [2], 204 nM. Besides, the Activity entry in data set [3] is “Non-Toxic”. In addition, the half-life turned out to be 2.7 min in data set [6] and 0.7 min in data set [7]. Moreover, the results for the remaining at 2 h in data set [8] and in [9] were 97% and 94.2%, respectively. The IC50 stood at 36200 nM in data set [10]; 29200 nM in data set [11]; 417 nM in [12]; 3460 nM in data set [13]; 461 nM in data set [14].
As for `O=C(O)c1cccc(-c2ccc(/C=N/NC(=O)C3COc4ccccc4O3)o2)c1` (stereo unspecified), the half-inhibitory concentration (IC50) in data set [4] is 7380 nM; in data set [15], 10100 nM; in data set [10] it was above 50000 nM; in data set [11], above 50000 nM; in [12], above 50000 nM; in data set [13] it was 49500 nM. Also, the half-inhibitory concentration (IC50) in data set [14] was above 50000 nM. The EC50 amounted to 12000 nM in data set [1] and 2980 nM in data set [2]. Further, the Activity entry in [3] is listed as “Non-Toxic”. Further, the half-life in [6] turned out to be 49.1 min; in data set [7], 30.9 min. In addition, the remaining at 2 h in [8] was 69.8%; in data set [9], 47.3%.
Take `O=C(Cc1ccc(-c2ccccc2)cc1)NCC1COc2ccccc2O1` (stereo unspecified): the EC50 was found to be 690 nM in data set [1] and 150 nM in data set [2]. For the same molecule, the Activity entry in [3] was “Non-Toxic”. Also, the values for the half-life in data set [6] and in [7] were below 2.5 min and 1.6 min, respectively. Besides, the remaining at 2 h in data set [8] turned out to be 98.7%; in data set [9], 108%. The IC50 in data set [10] was above 50000 nM; in data set [11], 12300 nM; in data set [12] it was 1640 nM; in data set [13], 559 nM; in [14], 228 nM.
